Reference: ChEMBL document CHEMBL3217615, “Novel 3,5-bis(arylidiene)-4-piperidone based monocarbonyl analogs of curcumin: anticancer activity evaluation and mode of action study” (2014)

Key:
Assay type in all cases: functional
[1] = test system: SK-MEL-2; test: Growth inhibition of human SK-MEL-2 cells after 48 hrs by sulforhodamine B assay; details: SK-MEL-2, 48 h; for CC50: read-out: LC50 (the source's name)
[2] = test system: COLO 205; test: Induction of apoptosis in human COLO205 cells assessed as DNA fragmentation at 10 uM
[3] = test system: Malme-3M; test: Growth inhibition of human MALME-3M cells assessed as cell growth at 10^-6 M after 48 hrs by sulforhodamine B assay; details: read-out: Activity
[4] = Growth inhibition of human MOLT4 cells assessed as cell growth at 10^-6 M after 48 hrs by sulforhodamine B assay; details: MOLT-4, 48 h, read-out: Activity
[5] = Growth inhibition of human SF295 cells assessed as cell growth at 10^-5 M after 48 hrs by sulforhodamine B assay; details: SF-295, 48 h, read-out: Activity
[6] = Growth inhibition of human UO31 cells assessed as cell growth at 10^-6 M after 48 hrs by sulforhodamine B assay; details: UO-31, 48 h, read-out: Activity
[7] = test system: IGROV-1; test: Growth inhibition of human IGROV1 cells assessed as cell growth at 10^-4 M after 48 hrs by sulforhodamine B assay; details: IGROV-1, 48 h, read-out: Activity
[8] = test system: SK-MEL-5; test: Growth inhibition of human SK-MEL-5 cells assessed as cell growth at 10^-4 M after 48 hrs by sulforhodamine B assay; details: SK-MEL-5, 48 h, read-out: Activity
[9] = test system: SF-268; test: Growth inhibition of human SF268 cells assessed as cell growth at 10^-4 M after 48 hrs by sulforhodamine B assay; details: SF-268, 48 h, read-out: Activity
[10] = test system: NCI-H23; test: Growth inhibition of human NCI-H23 cells assessed as cell growth at 10^-4 M after 48 hrs by sulforhodamine B assay; details: NCI-H23, 48 h, read-out: Activity
[11] = test system: M14; test: Growth inhibition of human M14 cells assessed as cell growth at 10^-8 M after 48 hrs by sulforhodamine B assay; details: M14, 48 h; for growth at 0.01 µM: read-out: Activity; for CC50: read-out: pLC50 (the source's name) (converted); for TGI: read-out: pTGI (converted)
[12] = Growth inhibition of human HCC2998 cells assessed as cell growth at 10^-8 M after 48 hrs by sulforhodamine B assay; details: HCC 2998, 48 h; for growth at 0.01 µM: read-out: Activity; for CC50: read-out: pLC50 (the source's name) (converted); for TGI: read-out: pTGI (converted)
[13] = test system: NCI-H460; test: Growth inhibition of human NCI-H460 cells assessed as cell growth at 10^-8 M after 48 hrs by sulforhodamine B assay; details: NCI-H460, 48 h; for growth at 0.01 µM: read-out: Activity; for TGI: read-out: pTGI (converted)
[14] = Growth inhibition of human HOP92 cells assessed as cell growth at 10^-8 M after 48 hrs by sulforhodamine B assay; details: HOP-92, 48 h; for growth at 0.01 µM: read-out: Activity; for TGI: read-out: pTGI (converted)
[15] = Growth inhibition of human UACC257 cells after 48 hrs by sulforhodamine B assay; details: UACC-257, 48 h; for CC50: read-out: LC50 (the source's name)
[16] = test system: SNB-19; test: Growth inhibition of human SNB19 cells after 48 hrs by sulforhodamine B assay; details: SNB-19, 48 h; for CC50: read-out: LC50 (the source's name)
[17] = test system: KM12; test: Growth inhibition of human KM12 cells after 48 hrs by sulforhodamine B assay; details: KM12, 48 h; for CC50: read-out: LC50 (the source's name)
[18] = test system: SR; test: Growth inhibition of human SR cells after 48 hrs by sulforhodamine B assay; details: for CC50: read-out: LC50 (the source's name)
[19] = test system: CCRF-CEM; test: Growth inhibition of human CCRF-CEM cells after 48 hrs by sulforhodamine B assay; details: for CC50: read-out: LC50 (the source's name)
[20] = test system: SN12C; test: Growth inhibition of human SN12C cells assessed as cell growth at 10^-4 M after 48 hrs by sulforhodamine B assay; details: read-out: Activity
[21] = test system: SK-MEL-5; test: Growth inhibition of human SK-MEL-5 cells assessed as cell growth at 10^-7 M after 48 hrs by sulforhodamine B assay; details: SK-MEL-5, 48 h, read-out: Activity
[22] = Growth inhibition of human HCT15 cells assessed as cell growth at 10^-7 M after 48 hrs by sulforhodamine B assay; details: HCT-15, 48 h, read-out: Activity
[23] = Growth inhibition of human HCC2998 cells assessed as cell growth at 10^-7 M after 48 hrs by sulforhodamine B assay; details: HCC 2998, 48 h, read-out: Activity
[24] = test system: HOP-62; test: Growth inhibition of human HOP62 cells assessed as cell growth at 10^-7 M after 48 hrs by sulforhodamine B assay; details: HOP-62, 48 h, read-out: Activity
[25] = test system: SR; test: Growth inhibition of human SR cells assessed as cell growth at 10^-7 M after 48 hrs by sulforhodamine B assay; details: read-out: Activity
[26] = Growth inhibition of human MOLT4 cells assessed as cell growth at 10^-7 M after 48 hrs by sulforhodamine B assay; details: MOLT-4, 48 h, read-out: Activity
[27] = test system: T47D; test: Growth inhibition of human T47D cells assessed as cell growth at 10^-8 M after 48 hrs by sulforhodamine B assay; details: for growth at 0.01 µM: read-out: Activity; for CC50: read-out: pLC50 (the source's name) (converted); for TGI: read-out: pTGI (converted)
[28] = test system: MDA-MB-231; test: Growth inhibition of human MDA-MB-231 cells assessed as cell growth at 10^-8 M after 48 hrs by sulforhodamine B assay; details: MDA-MB-231, 48 h; for growth at 0.01 µM: read-out: Activity; for TGI: read-out: pTGI (converted)
[29] = test system: DU-145; test: Growth inhibition of human DU145 cells assessed as cell growth at 10^-8 M after 48 hrs by sulforhodamine B assay; details: DU-145, 48 h; for growth at 0.01 µM: read-out: Activity; for TGI: read-out: pTGI (converted)
[30] = Growth inhibition of human UO31 cells assessed as cell growth at 10^-8 M after 48 hrs by sulforhodamine B assay; details: UO-31, 48 h; for growth at 0.01 µM: read-out: Activity; for TGI: read-out: pTGI (converted)
[31] = test system: ACHN; test: Growth inhibition of human ACHN cells assessed as cell growth at 10^-8 M after 48 hrs by sulforhodamine B assay; details: for growth at 0.01 µM: read-out: Activity; for TGI: read-out: pTGI (converted)
[32] = Growth inhibition of human OVCAR5 cells assessed as cell growth at 10^-8 M after 48 hrs by sulforhodamine B assay; details: OVCAR-5, 48 h; for growth at 0.01 µM: read-out: Activity; for TGI: read-out: pTGI (converted)

## O=C1/C(=C/c2ccc(Cl)cc2Cl)CN(S(=O)(=O)c2ccccc2)C/C1=C\c1ccc(Cl)cc1Cl
[1]
  GI50: 6010 nM
  TGI: > 100000 nM
  CC50: > 100000 nM
[2]
  Activity: 45%
[3]
  growth at 1 µM: 123%
[4]
  growth at 1 µM: 34%
[5]
  growth at 10 µM: -3%
[6]
  growth at 1 µM: -22%
[7]
  growth at 100 µM: -47%
[8]
  growth at 100 µM: 60%
[9]
  growth at 100 µM: 4%
[10]
  growth at 100 µM: -28%
[11]
  GI50: 3630 nM
  growth at 0.01 µM: 102%
  CC50: > 100000 nM
  TGI: > 100000 nM
[12]
  GI50: 380 nM
  growth at 0.01 µM: 102%
  CC50: 4570 nM
  TGI: 1350 nM
[13]
  GI50: 209 nM
  LC50: 955 nM
  growth at 0.01 µM: 103%
  TGI: 447 nM
[14]
  GI50: 1700 nM
  LC50: > 100000 nM
  growth at 0.01 µM: 81%
  TGI: 5500 nM
[15]
  GI50: 4080 nM
  TGI: > 100000 nM
  CC50: > 100000 nM
[16]
  GI50: 313 nM
  TGI: 2880 nM
  CC50: > 100000 nM
[17]
  GI50: 256 nM
  TGI: 602 nM
  CC50: 25700 nM
[18]
  GI50: 185 nM
  TGI: 865 nM
  CC50: > 100000 nM
[19]
  GI50: 286 nM
  TGI: 994 nM
  CC50: > 100000 nM
[20]
  growth at 100 µM: -44%
[21]
  growth at 0.1 µM: 98%
[22]
  growth at 0.1 µM: 90%
[23]
  growth at 0.1 µM: 102%
[24]
  growth at 0.1 µM: 113%
[25]
  growth at 0.1 µM: 70%
[26]
  growth at 0.1 µM: 106%
[27]
  GI50: 1260 nM
  growth at 0.01 µM: 99%
  CC50: > 100000 nM
  TGI: 100000 nM
[28]
  GI50: 468 nM
  growth at 0.01 µM: 102%
  TGI: 2140 nM
[29]
  GI50: 447 nM
  LC50: > 100000 nM
  growth at 0.01 µM: 106%
  TGI: 18600 nM
[30]
  GI50: 234 nM
  LC50: 4790 nM
  growth at 0.01 µM: 88%
  TGI: 646 nM
[31]
  GI50: 871 nM
  LC50: > 100000 nM
  growth at 0.01 µM: 99%
  TGI: 4570 nM
[32]
  GI50: 2140 nM
  LC50: > 100000 nM
  growth at 0.01 µM: 92%
  TGI: 7410 nM

## Cc1ccc(S(=O)(=O)N2C/C(=C\c3cc(F)cc(F)c3)C(=O)/C(=C/c3cc(F)cc(F)c3)C2)cc1
[1]
  GI50: 1970 nM
  TGI: 4660 nM
  CC50: 14800 nM
[2]
  Activity: 69.5%
[3]
  growth at 1 µM: -15%
[4]
  growth at 1 µM: 8%
[5]
  growth at 10 µM: -44%
[6]
  growth at 1 µM: 55%
[7]
  growth at 100 µM: -80%
[8]
  growth at 100 µM: -97%
[9]
  growth at 100 µM: -88%
[10]
  growth at 100 µM: -72%
[11]
  GI50: 363 nM
  growth at 0.01 µM: 103%
  CC50: 5890 nM
  TGI: 1410 nM
[12]
  GI50: 603 nM
  growth at 0.01 µM: 102%
  CC50: 4900 nM
  TGI: 1910 nM
[13]
  GI50: 832 nM
  LC50: 9120 nM
  growth at 0.01 µM: 103%
  TGI: 2880 nM
[14]
  GI50: 1120 nM
  LC50: 9770 nM
  growth at 0.01 µM: 72%
  TGI: 3310 nM
[15]
  GI50: 939 nM
  TGI: 2900 nM
  CC50: 8600 nM
[16]
  GI50: 220 nM
  TGI: 752 nM
  CC50: 2820 nM
[17]
  GI50: 327 nM
  TGI: 1000 nM
  CC50: 4040 nM
[18]
  GI50: 34.8 nM
  TGI: 252 nM
  CC50: > 100000 nM
[19]
  GI50: 74.8 nM
  TGI: 951 nM
  CC50: > 100000 nM
[20]
  growth at 100 µM: -96%
[21]
  growth at 0.1 µM: 89%
[22]
  growth at 0.1 µM: 80%
[23]
  growth at 0.1 µM: 105%
[24]
  growth at 0.1 µM: 110%
[25]
  growth at 0.1 µM: 14%
[26]
  growth at 0.1 µM: 88%
[27]
  GI50: 1780 nM
  growth at 0.01 µM: 96%
  CC50: 53700 nM
  TGI: 6030 nM
[28]
  GI50: 269 nM
  LC50: 8510 nM
  growth at 0.01 µM: 98%
  TGI: 776 nM
[29]
  GI50: 1230 nM
  LC50: 7590 nM
  growth at 0.01 µM: 106%
  TGI: 3090 nM
[30]
  GI50: 1100 nM
  LC50: 5130 nM
  growth at 0.01 µM: 91%
  TGI: 2340 nM
[31]
  GI50: 245 nM
  LC50: 2400 nM
  growth at 0.01 µM: 101%
  TGI: 617 nM
[32]
  GI50: 1020 nM
  LC50: 7410 nM
  growth at 0.01 µM: 95%
  TGI: 2750 nM
